Reference: patent US8507464B2, “Phosphoramidate alkylator prodrugs” (Threshold Pharmaceuticals, Inc., priority 2005, dated 2013)
Like-named read-outs stand apart in the source and are kept apart here.

What was measured:
NCI-H460 cells [1] = assay: Antiproliferation assay - oxygen dependence; type: cell-based, human; conditions: Homo sapiens
From the text: . […] The calculated IC50 values (μM) are tabulated in Table Y1 (H460 cells) or Table Y2 (HT29 cells) below.

[2] = type: physicochemical; conditions: glassy carbon, Ag/AgCl reference
in vivo = conditions: 50 mg/kg
[3] = Plasma stability (Table 2B); conditions: 30 min
[4] = tested on: H460 lung carcinoma spheroids; assay: Spheroid model, clonogenic survival; conditions: Homo sapiens, NCI-H460, 2 h, read-out: IC90 H460 Spheroid 10% O2
HT29 [5] = assay: Clonogenic assay, hypoxia vs normoxia (Table 1B); conditions: for IC90: Homo sapiens
[6] = tested on: H460 cells exposed as monolayers; assay: Clonogenic survival of monolayer cells (Example 35); conditions: Homo sapiens, NCI-H460, 2 h
NCI-H460 cells [7] = assay: Antiproliferation assay (Alamar Blue), anoxia vs air; conditions: Homo sapiens, NCI-H460, 2 h
HT29 cells = assay: as above; conditions: Homo sapiens, HT-29, 2 h
MES-SA/Dx5 cells = assay: as above; conditions: Homo sapiens, MES-SA/Dx5, 2 h
H460 cell line = assay: Anti-proliferation assay, hypoxia vs normoxia (Table 1A); conditions: for IC50: Homo sapiens; for HCR P: ratio of IC50 in normoxia and hypoxia
HT29 [8] = assay: Anti-proliferation assay, hypoxia vs normoxia (Table 1B); conditions: for IC50: Homo sapiens
DX-5 = assay: as above
human H460 cells = assay: Clonogenic survival assay, hypoxia vs normoxia (Table 1A); conditions: for IC90: Homo sapiens; for HCR C: ratio of IC90 in normoxia and hypoxia
[9] = Pharmacokinetics after intravenous or intraperitoneal administration in mice (Table 2B); conditions: plasma, 50 mg/kg
spheroids = assay: Spheroid combination with cisplatin or daunorubicin, clonogenic survival; type: cell-based, human; conditions: Homo sapiens, 2 h exposure, read-out: IC50 (μM), spheroids, daunorubicin combination experiment
Description: The phosphoramidate alkylator prodrug was combined simultaneously with cisplatin or daunorubicin and the spreroids exposed for 2 h to the combination, followed by measurement of clonogenic survival.

[10] = Solubility in saline at room temperature; type: physicochemical; conditions: saline or isotonic
[11] = tested on: mouse (MLM) liver microsomal proteins; type: in vitro ADME; conditions: Table 2B
NCI-H460 cells [12] = assay: Clonogenic assay - oxygen dependence; conditions: Homo sapiens
[13] = NCI-H460, read-out: IC50 in H460 cells, 0.6% O2
[14] = NCI-H460, read-out: IC50 in H460 cells, 1% O2
[15] = NCI-H460, read-out: IC50 in H460 cells, Air
[16] = NCI-H460, read-out: IC50 in H460 cells, N2
[17] = HT-29, read-out: HT29 C H (clonogenic IC90, hypoxia)
[18] = NCI-H460, read-out: Hypoxia P (proliferation IC50)
[19] = NCI-H460, read-out: Normoxia P (proliferation IC50)
[20] = HT-29, read-out: HT29 P H (proliferation IC50, hypoxia)
[21] = NCI-H460, read-out: Hypoxia C (clonogenic IC90)
[22] = NCI-H460, read-out: Normoxia C (clonogenic IC90)
[23] = CD-1, Balb/c for Compound 1, mouse, ip
[24] = CD-1, Balb/c for Compound 1, mouse, iv

Cn1c(COP(N)(=O)N(CCCl)CCCl)cnc1[N+](=O)[O-] (stereo not drawn) [Compound 1]
IC50 (NCI-H460 cells [1]; NCI-H460, read-out: IC50 in H460 cells, 0.3% O2): 10 µM
IC50 (NCI-H460 cells [1]; [13]): 7 µM
IC50 (NCI-H460 cells [1]; [14]): 50 µM
IC50 (NCI-H460 cells [1]; [15]): 100 µM
IC50 (NCI-H460 cells [1]; [16]): 0.3 µM
Reduction Potentials, 100 mV/sec ([2]; scan rate 100 mV/sec): −596 mV
Reduction Potentials, 10,000 mV/sec ([2]; scan rate 10,000 mV/sec): −638 mV
Cmax (in vivo; Balb/c, mouse, ip): 29900 ng/mL
Tmax (in vivo; Balb/c, mouse, ip): 15 min
AUC (in vivo; Balb/c, mouse, iv): 12500 ng·h/mL
Cmax (in vivo; Balb/c, mouse, iv): 35000 ng/mL
Tmax (in vivo; Balb/c, mouse, iv): 5 min
half-life (in vivo; Balb/c, mouse, iv): 15.3 min
Plasma stability (% at 30 min) [3]: 100%
IC90 [4]: > 100 µM
HT29 HCR C (HT29 [5]): >100
IC90 (HT29 [5]; [17]): 400 nM
IC90 (HT29 [5]; HT-29, read-out: HT29 C N (clonogenic IC90, normoxic)): 100000 nM
IC90 ([6]; read-out: IC90 H460 Monolayer Air): 75000 nM
IC90 ([6]; read-out: IC90 H460 Monolayer N2): 350 nM
IC50 (NCI-H460 cells [7]; read-out: IC50 H460 Air, air, 2 h exposure): 72 µM
IC50 (NCI-H460 cells [7]; read-out: IC50 H460 Anoxia, anoxia, 2 h exposure): 0.4 µM
IC50 (HT29 cells; read-out: IC50 HT29 Air): > 100 µM
IC50 (HT29 cells; read-out: IC50 HT29 Anoxia): 50 µM
IC50 (MES-SA/Dx5 cells; read-out: IC50 MES-SA/Dx5 Air): > 100000 nM
IC50 (MES-SA/Dx5 cells; read-out: IC50 MES-SA/Dx5 Anoxia): 1000 nM
IC50 (H460 cell line; [18]): 400 nM
IC50 (H460 cell line; [19]): 72000 nM
HCR P (H460 cell line): 180
HT29 HCR P (HT29 [8]): >2
IC50 (HT29 [8]; [20]): 50 µM
IC50 (HT29 [8]; HT-29, read-out: HT29 P N (proliferation IC50, normoxic)): 100 µM
DX-5 HCR (DX-5): >100
IC50 (DX-5; read-out: DX-5 P H (proliferation IC50, hypoxia)): 1000 nM
IC50 (DX-5; read-out: DX-5 P N (proliferation IC50, normoxic)): > 100000 nM
IC90 (human H460 cells; [21]): 0.35 µM
IC90 (human H460 cells; [22]): 75 µM
HCR C (human H460 cells): 200
Cmax [9, 23]: 29900 ng/mL
AUC [9, 24]: 12500 ng·h/mL
Cmax [9, 24]: 35000 ng/mL
Vd [9, 24]: 1.48 L/kg
half-life [9, 24]: 15.6 min
half-life ([9]; mouse, ip): 15 min

COc1cccc2c1C(=O)c1c(O)c3c(c(O)c1C2=O)C[C@@](O)(C(C)=O)C[C@@H]3O[C@H]1C[C@H](N)[C@H](O)[C@H](C)O1 [Daunorubicin, reference compound]
IC50 (spheroids): 17 µM
IC90 [4]: 19 µM
IC90 ([6]; read-out: IC90 H460 Monolayer (oxygen column not identifiable)): 160 nM

Cn1c([N+](=O)[O-])cnc1COP(=O)(N(CCCl)CCCl)N(CCCl)CCCl [Compound 155]
solubility [10]: < 1000 µg/mL

O=[N+]([O-])c1ccc(COP(=O)(NCCCl)NCCCl)o1 [Compound 23]
IC50 (NCI-H460 cells [1]; NCI-H460, read-out: IC50 in H460 cells, 0.1% O2): 5 µM
IC50 (NCI-H460 cells [1]; [13]): 6 µM
IC50 (NCI-H460 cells [1]; [14]): 5 µM
IC50 (NCI-H460 cells [1]; [15]): 5 µM
IC50 (NCI-H460 cells [1]; [16]): 0.05 µM
Metabolic stability (MLM) (% at 30 min) [11]: 71%
Cmax (in vivo; CD-1, mouse, ip): 8500 ng/mL
Tmax (in vivo; CD-1, mouse, ip): 5 min
half-life (in vivo; CD-1, mouse, ip): 9.6 min
Cmax (in vivo; CD-1, mouse, iv): 7800 ng/mL
Tmax (in vivo; CD-1, mouse, iv): 5 min
half-life (in vivo; CD-1, mouse, iv): 8.87 min
Plasma stability (% at 30 min) [3]: 84%
IC90 (NCI-H460 cells [12]; NCI-H460, read-out: IC90 H460 0.6% O2): 600 nM
IC90 (NCI-H460 cells [12]; NCI-H460, read-out: IC90 H460 Air): 5000 nM
IC90 (NCI-H460 cells [12]; NCI-H460, read-out: IC90 H460 N2): 300 nM
IC90 (HT29 [5]; [17]): 2000 nM
IC50 (HT29 cells; read-out: IC50 HT29 Anoxia): 7.5 µM
IC50 (H460 cell line; [18]): 40 nM
IC50 (H460 cell line; [19]): 5000 nM
HCR P (H460 cell line): 125
IC50 (HT29 [8]; [20]): 7.5 µM
IC90 (human H460 cells; [21]): 0.2 µM
IC90 (human H460 cells; [22]): 10 µM
HCR C (human H460 cells): 50
clearance ([9]; CD-1 (Compounds 5, 23, 36), Balb/c (Compound 1), mouse, iv): 368 mL/min/kg
AUC ([9]; CD-1, mouse, ip): 3500 ng·h/mL
Cmax [9, 23]: 8500 ng/mL
AUC [9, 24]: 2300 ng·h/mL
Cmax [9, 24]: 7800 ng/mL
Vd [9, 24]: 3.3 L/kg
half-life [9, 24]: 9 min
half-life ([9]; mouse, ip): 9.6 min
